Data set [1] has as its system cardiac progenitor cells. Kind of data set: Effect of concentration of antifibrinolytic agent on cardiac progenitor cell-induced degradation of hydrogel (toluidine blue). It counts as cell-based. The settings on record: 0.5 or 1.0 mg/ml, 1 day culture. The method, then:
100 μl of the fibrinogen solution containing cardiac progenitor cells was added to 100 μl of each of the respective thrombin solutions containing aminomethylbenzoic acid in concentrations of […], 0.5, and 1.0 mg/ml. After complete formation of hydrogel, cardiac progenitor cells were cultured for 1 day, fixed with formalin, and stained with toluidine blue. An examination was made of the states of the fibrin hydrogels and cells.

Data set [2] has as its system cardiac progenitor cell-induced fibrinolysis. The experiment in a line: Inhibition of antifibrinolytic agents against cardiac progenitor cell-induced fibrinolysis (fibrin hydrogel degradation, Alexa Fluor 488-fibrinogen release). It counts as cell-based. Here is the method: The cardiac progenitor cells were mixed at a density of 2×10^5 cells per 100 μl of each of the four fibrinogen solutions with 100 μl of the thrombin solution, followed by a cross-linking reaction for 2 hrs. Following the formation of hydrogel, 300 μl of a cell culture was added to the hydrogel, and incubated for 1 day. A hydrogel void of cardiac progenitor cells was prepared for use as a control.
Antifibrinolytic agents were purchased from Sigma.

For data set [3], the system named is myocardial fragments. Kind of data set: Organ culture of myocardial fragments in fibrin hydrogel with antifibrinolytic agent (phase-contrast microscopy). It counts as cell-based, human. The settings on record: 100 μg/ml solution added to fibrinogen solution, organ culture 3 days. The method, then:
Four fibrinogen solutions with respective concentrations of 2.5, 5.0, 10.0, and 20.0 mg/ml were prepared, and each was added with a 100 μg/ml aminomethylbenzoic acid or tranexamic acid solution, as in Example 5. From the heart of a brain-dead patient, the myocardium was taken after the removal of both the epicardium and the endocardium. […] The myocardial fragments were added at a density of 10 per 0.5 ml of a 1 unit/ml thrombin solution. Each of the four fibrinogen solutions was mixed at a volume ratio of 1:1 with the thrombin solution containing the cardiac fragments. The resulting mixture was aliquoted in an amount of 1 ml per well into 6-multiwell tissue culture plates before performing a polymerization and cross-linking reaction to form a hydrogel.

Data set [4] relates to cardiac progenitor cells. The experiment in a line: Suspension cell culture assay for differentiation into cardiomyocytes (real-time PCR). It counts as cell-based. As to conditions: 1 mM in medium, 1 and 3 days. Here is the method:
A suspension of cardiac progenitor cells in a medium inducing myocardial differentiation was seeded at a density of 20,000 to 100,000 cells/well into polymer-coated 24-multiwell tissue culture plates preventive of cell and protein adhesion (Ultra-Low Attachment Surface, Corning, Lowell, Mass.). The medium was supplemented with 1 mM Wnt3a or Dkk1 before culturing the cardiac progenitor cells in a suspension culture condition or a monolayer culture condition. After culturing for 1 and 3 days, RNA was isolated from the cardiac progenitor cells and used to synthesize cDNA. Real-time PCR was performed on this cDNA to quantify mRNA levels of bone morphogenetic protein 2 (BMP2), SOX17, ANP, α-MHC, β-MHC, MLC2a, and MLC2v (myosin light chain-2 ventricle), which are involved in the formation of cardiospheres or the Wnt signaling pathway, thus evaluating the potential to differentiate into cardiomyocytes.
(Quantitative PCR measures a nucleic acid by following its amplification.)

Data on 5 molecules can be found in patent US20130295060A1, “METHOD FOR CULTURING CARDIAC PROGENITOR CELLS AND USE OF CARDIAC PROGENITOR CELLS” (Ewha University-Industry Collaboration Foundation, priority 2012, published 2013).

Take `NCc1ccc(C(=O)O)cc1` [aminomethylbenzoic acid]: the “cytotoxicity to the cardiac progenitor cells” value in data set [1] is recorded as “caused cytotoxicity”.
Turning to `NC[C@H]1CC[C@H](C(=O)O)CC1` [tranexamic acid], the “antifibrinolytic activity compared with aminocaproid acid or aprotinin” value in data set [2] is given as “three times as high”. In data set [3], the “hydrogel as cell adhesion substrate during organ culture of myocardial fragments” value is reported as “stable, three-dimensional cell adhesion substrates”.
For aprotinin, the “degradation of fibrin hydrogel by cardiac progenitor cells” value in data set [2] (hydrogel containing the antifibrinolytic agent, cardiac progenitor cells embedded, incubated 1 day) was found to be 95%.

B1: Dkk1: factor of the Wnt signaling pathway added to the differentiation medium (protein, UniProt O94907 32-266, looked up)
Dickkopf-related protein 1: TLNSVLNSNAIKNLPPPLGGAAGHPGSAVSAAPGILYPGGNKYQTIDNYQPYPCAEDEECGTDEYCASPTRGGDAGVQICLACRKRRKRCMRHAMCCPGNYCKNGICVSSDQNHFRGEIEETITESFGNDHSTLDGYSRRTTLSSKMYHTKGQEGSVCLRSSDCASGLCCARHFWSKICKPVLKEGQVCTKHRRKGSHGLEIFQRCYCGEGLSCRIQKDHHQASNSSRLHTCQRH
On to B1, for which, in data set [4], the “mRNA levels of ANP, α-MHC, β-MHC, MLC-2a and MLC2v” value is “reduced”; the “mRNA levels of BMP2 and SOX17” value is “decreased”.

B2: Wnt3a: factor of the Wnt signaling pathway added to the differentiation medium (protein, UniProt P56704 19-352, looked up)
Protein Wnt-3a: SYPIWWSLAVGPQYSSLGSQPILCASIPGLVPKQLRFCRNYVEIMPSVAEGIKIGIQECQHQFRGRRWNCTTVHDSLAIFGPVLDKATRESAFVHAIASAGVAFAVTRSCAEGTAAICGCSSRHQGSPGKGWKWGGCSEDIEFGGMVSREFADARENRPDARSAMNRHNNEAGRQAIASHMHLKCKCHGLSGSCEVKTCWWSQPDFRAIGDFLKDKYDSASEMVVEKHRESRGWVETLRPRYTYFKVPTERDLVYYEASPNFCEPNPETGSFGTRDRTCNVSSHGIDGCDLLCCGRGHNARAERRREKCRCVFHWCCYVSCQECTRVYDVHTCK
B2: in data set [4], the “mRNA levels of ANP, α-MHC, β-MHC, MLC-2a and MLC2v” value was “increased”; the “mRNA levels of BMP2 and SOX17” value is “increased”.
